According to publication PMC7395068, “The evolution of strategies to minimise the risk of human drug-induced liver injury (DILI) in drug discovery and development” (Archives of Toxicology, 2020):
Read-outs that look alike come from different tables or passages of the source.

Tests used:
[1] = tested on: THLE-Null and THLE-3A4 cells; settings: In vitro Assay; ref Gustafsson 2014; cited from earlier work
hLiMTs [2] = tested on: hLiMTs
Procedure: (§1) 3D spheroid models consisting of either primary human hepatocytes with non-parenchymal cells (hLiMT’s) or HepaRG cells (HepaRG spheroids) were assessed for size (MS), oxidative stress (OS), MMP, mitochondrial mass (MM), GSH and cellular ATP content following drug exposure. Fluorescent images are acquired using the confocal mode of an ArrayScan™ XTI HCI reader (ThermoScientific) following which cellular ATP was measured using 3D CellTiter-Glo (Promega).

HepaRG spheroids [3] = tested on: HepaRG spheroids
[4] = cited from earlier work
HepaRG spheroids [5] = experiment: Combined HCI (HCS) and cellular ATP 3D assay in HepaRG spheroids; settings: HepaRG; for AC50 / minimal effective concentration: Homo sapiens
[6] = cited from earlier work; remark: listed apart in the source
HepG2 cells [7] = settings: cited from earlier work
[8] = cited from earlier work; remark: listed apart in the source
rBsep = settings: In vitro Assay; ref Dawson 2012; cited from earlier work
[9] = Plasma free fraction (fu) and unbound Cmax (Cmax,u); assay type: in vitro ADME, human
Procedure: The prediction of DILI severity was evaluated further using the 3D combined HCI assays using plasma-free fraction. The majority of fu values were obtained from literature, when unavailable in-house prediction was utilised. Unbound plasma Cmax concentrations (Cmax,u) were derived by multiplying total plasma Cmax with the corresponding free fraction (fu) for each compound.

PHH spheroids = settings: cited from earlier work
PHH = settings: cited from earlier work
HepG2 cells [10] = settings: cited from earlier work; remark: listed apart in the source
[11] = plasma free fraction; cited from earlier work
hLiMTs [12] = experiment: Combined HCI (HCS) and cellular ATP 3D assay in hLiMTs; settings: for AC50 / minimal effective concentration: Homo sapiens
Procedure: as §1

hLiMTs [13] = settings: cited from earlier work
human hepatocytes = settings: cited from earlier work
[14] = In vitro Assay, ref Persson 2013
[15] = In vitro Assay, ref Proctor 2017

In the case of `CCOC(=O)c1ncn2c1CN(C)C(=O)c1cc(F)ccc1-2` [flumazenil, reference compound], the THLE-Null [1] is given as “-VE”, the “DILI prediction hLiMTs (HCS-MEC)” value (hLiMTs [2]) is given as “-VE” and the “DILI prediction HepaRG spheroids (HCS-MEC)” value (HepaRG spheroids [3]) is given as “-VE”. For the same compound, the “Assigned DILI category” value ([4]; Chen et al. 2016 or literature alignment, ref Chen et al. 2016) was 1, the “In vivo DILI” value ([4]; ref Dawson 2012) was “-VE” and the “In vivo DILI” value ([4]; ref Gustafsson 2014) was “-VE”. For the same compound, the “In vivo DILI” value ([4]; ref O'Brien 2006) was “-VE”, the “In vivo DILI” value ([4]; ref Persson 2013) was “-VE” and the “In vivo DILI” value ([4]; ref Proctor 2017) was “-VE”. The “In vivo DILI” value ([4]; ref Vorrink 2018) was “-VE”, the “In vivo DILI” value ([4]; ref Williams 2019) was “-VE” and the “In vivo DILI” value ([4]; ref Xu 2008) was “-VE”. The “HepaRG <25x Avg Cmax ATP” value (HepaRG spheroids [5]; ATP endpoint, cut-off <25x Avg Cmax) was “-ve”, the “HepaRG <25x Avg Cmax HCS” value (HepaRG spheroids [5]; HCS endpoints, cut-off <25x Avg Cmax) was “-ve” and the “HepaRG <25x Avg Cmax All” value (HepaRG spheroids [5]; all endpoints (ATP and HCS), cut-off <25x Avg Cmax) was “-ve”. For the same compound, the “HepaRG Cmax max All” value (HepaRG spheroids [5]; all endpoints, Cmax max used) was “-ve”, the “HepaRG Cmax min All” value (HepaRG spheroids [5]; all endpoints, Cmax min used) was “-ve” and the “HepaRG <10 uM All” value (HepaRG spheroids [5]; all endpoints, cut-off <10 uM) was “-ve”. For the same compound, the Cmax ([6]; read-out: Human plasma Cmax, total plasma Cmax.tot, median of 9 literature references) was 1.12 µM, the Cluser analysis (HepG2 cells [7]; [14]) was “-VE” and the “Structural based (HCI)” value (HepG2 cells [7]; [14]) was “-VE”. The “DILI in vitro assay prediction, Persson (2013)” value (HepG2 cells [7]; Structural based (HCI), HepG2, ref Persson et al. 2013) was “-VE”, the “DILI severity category (Chen et al. [2016])” value ([8]; LTKB DILIrank category, ref Chen et al. 2016) was “No” and the “DILI severity category (Chen 2016)” value ([8]; human DILI classification, LTKB DILIrank, ref Chen et al. 2016) was “No”. For the same compound, the DILI severity category ([8]; human DILI severity, ref Chen et al.) was “No”, the “DILI +VE (5-8), DILI -VE (-4)” value ([8]; ref Chen 2016) was “-VE” and the DILI severity category ([8]; ref Chen 2016) was “vNo-DILI-Concern”. For the same compound, the “Inhibition of rBsep cutoff<1& cmax u>.2” value (rBsep) was “-VE”, the “Inhibition of rBsep cutoff<3” value (rBsep) was “-VE” and the “Human plasma Cmax,u” value ([9]; unbound plasma Cmax) was 0.650 µM. For the same compound, the “hLiMTs ATP <20 x Cmax” value (PHH spheroids; In vitro Assay, ref Vorrink 2018) was “-VE”, the “DILI in vitro assay prediction, Vorrink (2018)” value (PHH spheroids; PHH spheroids, ATP, 14 days, IC20 < 20 × Cmax.tot, ref Vorrink et al. 2018) was “-VE” and the “PHH/100uM, Proctor (2017)” value (PHH; 2D PHH, ATP, IC50 threshold 100 µM, ref Proctor et al. 2017) was “-VE”. For the same compound, the “PHH ATP <100uM” value (PHH; [15]) was “-VE”, the “Structural based (HCI)” value (HepG2 cells [10]; In vitro Assay, ref O'Brien 2006) was “-VE” and the “DILI in vitro assay prediction, O'Brien (2006)” value (HepG2 cells [10]; Structural based (HCI), HepG2, ref O'Brien et al. 2006) was “-VE”. The fu [11] was 0.580, the “hLiMTs <25x Avg Cmax ATP” value (hLiMTs [12]; hLiMTs, ATP endpoint, cut-off <25x Avg Cmax) was “-ve” and the “hLiMTs <25x Avg Cmax HCS” value (hLiMTs [12]; hLiMTs, HCS endpoints, cut-off <25x Avg Cmax) was “-ve”. For the same compound, the “hLiMTs <25x Avg Cmax All” value (hLiMTs [12]; hLiMTs, all endpoints (ATP and HCS), cut-off <25x Avg Cmax) was “-ve”, the “hLiMTs Cmax max All” value (hLiMTs [12]; hLiMTs, all endpoints, Cmax max used) was “-ve” and the “hLiMTs Cmax min All” value (hLiMTs [12]; hLiMTs, all endpoints, Cmax min used) was “-ve”. The “hLiMTs <10 uM All” value (hLiMTs [12]; hLiMTs, all endpoints, cut-off <10 uM) was “-ve”, the “hLiMTs ATP <100uM” value (hLiMTs [13]; [15]) was “-VE” and the “hLiMTs/100uM, Proctor (2017)” value (hLiMTs [13]; hLiMTs, ATP, IC50 threshold 100 µM, ref Proctor et al. 2017) was “-VE”. For the same compound, the “Structural based (HCI)” value (human hepatocytes; In vitro Assay, ref Xu 2008) was “-VE” and the “DILI in vitro assay prediction, Xu (2008)” value (human hepatocytes; Structural based (HCI), human hepatocytes, ref Xu et al. 2008) was “-VE”.
For `CO[C@@]12[C@H](COC(N)=O)C3=C(C(=O)C(C)=C(N)C3=O)N1C[C@@H]1N[C@@H]12` [mitomycin C], the “hLiMTs <10 uM All” value (hLiMTs [2]) was “+ve (key: +ve: <10 uM)”, the “hLiMTs <100x Avg Cmaxu ATP” value (hLiMTs [2]; human) was “+ve (key: +ve: <100x Avg Cmaxu)” and the “hLiMTs <100x Avg Cmaxu All” value (hLiMTs [2]; human) was “+ve (key: +ve: <100x Avg Cmaxu)”. For the same compound, the “hLiMTs <100x Avg Cmaxu HCS” value (hLiMTs [2]; human) was “+ve (key: +ve: <100x Avg Cmaxu)”, the “hLiMTs Cmax max All” value (hLiMTs [2]; human) was “+ve” and the “hLiMTs Cmax min All” value (hLiMTs [2]; human) was “+ve”. The “HepaRG <10 uM All” value (HepaRG spheroids [3]) was “+ve (key: +ve: <10 uM)”, the “HepaRG <100x Avg Cmaxu ATP” value (HepaRG spheroids [3]; human) was “+ve (key: +ve: <100x Avg Cmaxu)” and the “HepaRG <100x Avg Cmaxu All” value (HepaRG spheroids [3]; human) was “+ve (key: +ve: <100x Avg Cmaxu)”. The “HepaRG <100x Avg Cmaxu HCS” value (HepaRG spheroids [3]; human) was “+ve (key: +ve: <100x Avg Cmaxu)”, the “HepaRG Cmax max All” value (HepaRG spheroids [3]; human) was “+ve” and the “HepaRG Cmax min All” value (HepaRG spheroids [3]; human) was “+ve”. The AC50 (HepaRG spheroids [5]; read-out: ATP endpoint AC50) was 400 nM, the minimal effective concentration (HepaRG spheroids [5]; read-out: ATP endpoint MEC) was 0.4 µM and the AC50 (HepaRG spheroids [5]; read-out: HCS endpoint AC50) was 400 nM. For the same compound, the minimal effective concentration (HepaRG spheroids [5]; read-out: HCS endpoint MEC) was 0.4 µM, the Cmax ([6]; human, in vivo) was 7.1 µM and the “Human plasma Cmax,u” value ([9]; human) was 5.396 µM. For the same compound, the “PHH/100uM, Proctor (2017)” value (PHH) was “+VE (key: +VE: IC50 threshold of 100 µM)”, the AC50 (hLiMTs [12]; read-out: ATP endpoint AC50) was 929 nM and the minimal effective concentration (hLiMTs [12]; read-out: ATP endpoint MEC) was 0.454 µM. The AC50 (hLiMTs [12]; read-out: HCS endpoint AC50) was 1090 nM, the minimal effective concentration (hLiMTs [12]; read-out: HCS endpoint MEC) was 0.399 µM and the “hLiMTs/100uM, Proctor (2017)” value (hLiMTs [13]) was “+VE (key: +VE: IC50 threshold of 100 µM)”.
